Measurements published in patent US8198273B2, “Compounds and methods for kinase modulation, and indications therefor” (Plexxikon Inc., priority 2009, dated 2012).
pIC50: −log10 of the molar value.

Legend:
[1] = biological target: T1, CYP1A2 (Homo sapiens, UniProt P05177); assay: CYP1A2 inhibition (fluorescent substrate); type: in vitro ADME; settings: CYP1A2, CEC substrate; read-out: Cyp IC50 1A2
T1 sequence (P05177 1-516): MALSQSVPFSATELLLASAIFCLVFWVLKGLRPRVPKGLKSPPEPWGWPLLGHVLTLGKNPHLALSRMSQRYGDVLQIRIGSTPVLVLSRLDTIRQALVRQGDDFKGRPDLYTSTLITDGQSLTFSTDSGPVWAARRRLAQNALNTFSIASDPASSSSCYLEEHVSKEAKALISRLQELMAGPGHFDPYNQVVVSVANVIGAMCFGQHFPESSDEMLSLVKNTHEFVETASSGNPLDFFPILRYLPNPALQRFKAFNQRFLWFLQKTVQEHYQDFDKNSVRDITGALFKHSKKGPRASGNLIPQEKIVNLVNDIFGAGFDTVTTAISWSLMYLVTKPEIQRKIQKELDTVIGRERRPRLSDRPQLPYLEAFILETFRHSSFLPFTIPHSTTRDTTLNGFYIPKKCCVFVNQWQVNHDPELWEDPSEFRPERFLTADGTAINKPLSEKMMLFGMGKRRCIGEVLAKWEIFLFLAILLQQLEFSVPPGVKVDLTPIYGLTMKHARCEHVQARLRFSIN
Outline: (§1)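 IC50 values come from plotting product fluorescence against compound concentration; inhibition lowers formation of the fluorescent metabolite. Ten-point twofold dilutions in co-factor mix were held 10 minutes at 37 °C before the enzyme reaction, also run at 37 °C.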

[2] = biological target: c-Raf-1 (Homo sapiens, UniProt P04049); assay: c-Raf-1 biochemical kinase inhibition (AlphaScreen, biotin-MEK1 substrate); settings: 100 μM ATP
Chain of c-Raf-1 (P04049 whole entry): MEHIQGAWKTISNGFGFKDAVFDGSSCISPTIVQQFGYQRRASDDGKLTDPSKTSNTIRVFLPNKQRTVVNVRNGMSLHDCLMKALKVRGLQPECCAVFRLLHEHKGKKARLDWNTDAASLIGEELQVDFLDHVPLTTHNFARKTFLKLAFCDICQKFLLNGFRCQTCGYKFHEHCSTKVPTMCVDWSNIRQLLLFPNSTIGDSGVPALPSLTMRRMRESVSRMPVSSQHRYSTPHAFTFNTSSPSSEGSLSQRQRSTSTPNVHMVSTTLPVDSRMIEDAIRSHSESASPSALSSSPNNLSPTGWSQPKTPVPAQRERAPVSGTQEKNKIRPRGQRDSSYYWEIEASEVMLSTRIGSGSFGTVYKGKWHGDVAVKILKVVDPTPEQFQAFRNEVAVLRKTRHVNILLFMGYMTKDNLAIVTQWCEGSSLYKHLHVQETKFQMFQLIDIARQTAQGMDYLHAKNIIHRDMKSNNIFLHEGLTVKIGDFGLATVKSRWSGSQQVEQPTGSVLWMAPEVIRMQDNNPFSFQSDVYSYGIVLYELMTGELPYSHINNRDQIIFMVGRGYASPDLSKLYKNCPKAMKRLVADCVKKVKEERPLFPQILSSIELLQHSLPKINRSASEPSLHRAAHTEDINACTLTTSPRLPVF
Outline: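 IC50 derived from AlphaScreen signal plotted against compound concentration. Final ATP 100 μM; 3 h incubation at room temperature. Eight-point 3-fold dilution series prepared from a 0.1 mM DMSO stock.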

[3] = test system: A375 melanoma cells (B-Raf V600E); assay: A375 cell growth inhibition (ATPlite); type: cell-based; settings: Homo sapiens, A-375, 72 h; A375, 3 days incubation
Outline: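 Cells plated overnight, then exposed 3 days at 37° C to 8-point 1:3 compound dilutions topping at 10 μM final. Viability read as ATPlite luminescence, proportional to cell number; IC50 from luminescence versus concentration.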

[4] = biological target: CYP2D6 (Homo sapiens, UniProt P10635); assay: CYP2D6 inhibition (fluorescent substrate); type: in vitro ADME; settings: CYP2D6, AMMC substrate; read-out: Cyp IC50 2D6
Chain of CYP2D6 (P10635 whole entry): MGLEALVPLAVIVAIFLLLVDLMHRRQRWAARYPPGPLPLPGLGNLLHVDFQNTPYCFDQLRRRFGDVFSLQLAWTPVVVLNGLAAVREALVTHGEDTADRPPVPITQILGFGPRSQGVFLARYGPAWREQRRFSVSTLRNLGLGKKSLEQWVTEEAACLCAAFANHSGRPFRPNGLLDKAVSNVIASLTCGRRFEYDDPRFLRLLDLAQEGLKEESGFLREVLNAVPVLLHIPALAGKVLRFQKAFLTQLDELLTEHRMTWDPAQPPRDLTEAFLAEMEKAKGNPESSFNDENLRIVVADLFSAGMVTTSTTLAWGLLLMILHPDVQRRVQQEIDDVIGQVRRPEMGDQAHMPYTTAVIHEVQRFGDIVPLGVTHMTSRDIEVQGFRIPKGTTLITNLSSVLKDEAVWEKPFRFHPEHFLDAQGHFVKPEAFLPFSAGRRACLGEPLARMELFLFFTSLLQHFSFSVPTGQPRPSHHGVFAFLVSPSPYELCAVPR
Outline: as §1

## CCCS(=O)(=O)Nc1ccc(F)c(C(=O)c2c[nH]c3ncc(-c4ccc(N(C)C)nc4)cc23)c1F [P-2229, Propane-1-sulfonic acid {3-[5-(6-dimethylamino-pyridin-3-yl)-1H-pyrrolo[2,3-b]pyridine-3-carbonyl]-2,4-difluoro-phenyl}-amide]
[1]
  pIC50: < 5.00
[2]
  pIC50: > 7.00
[3]
  pIC50: > 7.00
[4]
  pIC50: < 5.00
